Measured values from patent US9029409B2, “Isoxazolines as therapeutic agents” (AbbVie Inc., priority 2011, dated 2015).

These compounds were tested against T1, recombinant human MMP13 catalytic domain (CD) (Homo sapiens, UniProt P45452) (assay: MMP-13 catalytic domain FRET enzyme assay). Settings: recombinant human MMP-13 catalytic domain.
T1 construct: catalytic domain (CD) construct encompassing residues 20-274 (SWISS-PROT P45452); made in house
Type: biochemical
Method: A recombinant human MMP13 catalytic domain (CD) construct encompassing residues 20-274 (SWISS-PROT P45452) was generated by synthetic gene methods and bacterial expression. MMP-13 activity assays were performed using the recombinant human MMP-13 CD at a 0.4 nM concentration and the fluorogenic substrate (QXL-520)-K-P-L-A˜Nva-Dap(5-FAM)-A-R-NH2 (Anaspec cat #60554-01, San Jose, Calif.) at a 0.25 μM concentration in assay buffer containing […], pH 7.5, 10 mM CaCl2, 150 mM NaCl, 0.05% Brij 35. The assay is based on the cleavage of this substrate by MMP-13, resulting in decrease of FRET between the donor-acceptor pair and subsequent fluorescence enhancement. The assays were carried out in 384-well plates (Greiner cat #781076, Germany) for 60 min at RT. After the incubation period, the reaction was quenched by the addition of 5 μL of 500 mM EDTA (100 mM final concentration) (Rankem, Cat #E0120, India) mixed well and the rate of substrate hydrolysis was determined by monitoring change in fluorescence at excitation and emission wavelengths of 485 nm and 535 nm respectively. Fluorescence was measured on a Victor V5 plate reader (Perkin Elmer, Turku, Finland). The test compounds used for assessing the potency of inhibition of MMP-13 activity were dissolved in DMSO (final DMSO concentration in the assay was 5%). Selected compounds were also screened against full length MMP13 (R&D Systems (Cat. No. 511-MM-010), Minneapolis, Minn.) at 2 nM concentration using the same fluorogenic substrate mentioned above. The enzyme was activated using 1 m Mp-aminophenylmercuric acetate—APMA (Cat #A-9563, Sigma, Germany).
Data analysis: The percent inhibition of the enzyme activity in presence of test compounds were calculated using the equation, percent (%) Inhibition=100−[(Fi/Fc)*100] where Fc is the fluorescence corresponding to initial enzyme activity and Fi is the fluorescence corresponding to the enzyme activity in presence of inhibitor. The IC50 values were calculated by fitting the dose-response data to a sigmoidal curve fitting equation using Graph Pad prism software (Version 5, La Jolla, Calif.).
MMP13 Catalytic Domain (CD) Potency of the Described Examples Determined Using Time Resolved Fluorescence Resonance Energy Transfer (FRET) Enzyme Assays: […]

Row | IC50 [µM] | Compound
1 | < 0.01 | CNC(=O)c1ccc(C2CC(c3cc(C(=O)NCc4ccc(F)c(OC)c4)nc(C)n3)=NO2)cc1 (stereo not shown)
2 | 0.01 to 0.1 | Cc1nc(C(=O)NCc2ccc(F)cc2)cc(C2=NOC([C@H]3CC[C@H](NC(=O)[C@H](C)O)CC3)C2)n1 (stereo partly shown)
3 | < 0.01 | COc1cc(CNC(=O)c2cc(C3=NOC(c4ccc(C(C)O)cn4)C3)nc(C)n2)ccc1F (stereo not shown)
4 | 0.1 to 1 | COc1ccc(CNC(=O)c2cc(C3=NOC(c4ccc(OC)cc4)C3)ccn2)cc1 (stereo not shown)
5 | > 1 | COc1cccc(CNC(=O)c2cc(C3=NO[C@@H]([C@H]4CO[C@H](CO)CO4)C3)nc(C)n2)c1
6 | < 0.01 | Cc1nc(C(=O)NCc2ccc3c(c2)NC(=O)CO3)cc(C2=NOC([C@H]3CC[C@H](NC(=O)[C@H](C)O)CC3)C2)n1 (stereo partly shown)
7 | < 0.01 | CC(=O)N[C@H]1CC[C@H](C2CC(c3cc(C(=O)NCc4ccc5c(c4)NC(=O)CO5)nc(C)n3)=NO2)CC1 (stereo partly shown)
8 | < 0.01 | COc1cc(CNC(=O)c2cc(C3=NOC(C4CCN(C(=O)NCCO)CC4)C3)nc(C)n2)ccc1F (stereo not shown) [drawing 1067]
9 | < 0.01 | COc1cc(CNC(=O)c2cc(C3=NOC([C@H]4CC[C@H](CNC(C)=O)CC4)C3)nc(C)n2)ccc1F (stereo partly shown)
10 | 0.01 to 0.1 | COc1ccc(CNC(=O)c2cc(C3=NOC(c4ccc(C(=O)O)cc4)C3)ccn2)cc1 (stereo not shown)
11 | < 0.01 | COc1cc(CNC(=O)c2cc(C3=NO[C@H]([C@H]4CO[C@H](C(=O)O)CO4)C3)nc(C)n2)ccc1F
12 | < 0.01 | Cc1nc(C(=O)NCc2ccc(F)c(Cl)c2)cc(C2=NO[C@H]([C@H]3CO[C@H](CO)CO3)C2)n1 [drawing 901]
13 | 0.1 to 1 | Cc1nc(C(=O)NCc2ccnc3ccccc23)cc(C2=NO[C@H]([C@H]3CO[C@H](CO)CO3)C2)n1
14 | 0.01 to 0.1 | COc1cc(CNC(=O)c2cc(C3=NOC(C4CCN(C(=O)CNS(C)(=O)=O)CC4)C3)nc(C)n2)ccc1F (stereo not shown)
15 | 0.01 to 0.1 | COc1cc(CNC(=O)c2cc(C3=NOC(C4CCN(C(=O)CCN(C)C)CC4)C3)nc(C)n2)ccc1F (stereo not shown)
16 | 0.01 to 0.1 | COCC(=O)N1CCC(C2CC(c3cc(C(=O)NCc4ccc(F)c(OC)c4)nc(C)n3)=NO2)CC1 (stereo not shown)
17 | 0.01 to 0.1 | COc1cc(CNC(=O)c2cc(C3=NOC(c4ccc(CN5CCOCC5)cc4)C3)nc(C)n2)ccc1F (stereo not shown)
18 | 0.01 to 0.1 | COc1cc(CNC(=O)c2cc(C3=NO[C@H]([C@H]4CC[C@H](NC(C)=O)CC4)C3)nc(C)n2)ccc1F [drawing 1032]
19 | 0.01 to 0.1 | COc1cc(CNC(=O)c2cc(C3=NOC(c4ccnc(C(C)(C)O)c4)C3)nc(C)n2)ccc1F (stereo not shown)
20 | 0.01 to 0.1 | CNC(=O)Cn1cc([C@H]2CC(c3cc(C(=O)NCc4ccc(F)c(OC)c4)nc(C)n3)=NO2)ccc1=O
21 | 0.01 to 0.1 | COc1cc(CNC(=O)c2cc(C3=NOC(c4ccc(=O)n(CC(=O)N(C)C)c4)C3)nc(C)n2)ccc1F (stereo not shown)
22 | > 1 | COc1cccc(CNC(=O)c2cc(C3=NO[C@@H]([C@@H]4CO[C@@H](CO)CO4)C3)nc(C)n2)c1
23 | 0.01 to 0.1 | COc1cc(CNC(=O)c2cc(C3=NOC(C4CCN(C(=O)Nc5ccon5)CC4)C3)nc(C)n2)ccc1F (stereo not shown)

Row | IC50 [µM] | Compound
24 | < 0.01 | Cc1nc(C(=O)NCc2ccc(F)cc2)cc(C2=NOC(C3CCN(S(C)(=O)=O)CC3)C2)n1 (stereo not shown)
25 | 0.01 to 0.1 | Cc1nc(C(=O)NCc2ccc3c(c2)CCO3)cc(C2=NO[C@H]([C@H]3CO[C@H](CO)CO3)C2)n1
26 | < 0.01 | COc1cc(CNC(=O)c2cc(C3=NOC(c4ccc(=O)n(C5CC5)c4)C3)nc(C)n2)ccc1F (stereo not shown)
27 | < 0.01 | COc1cccc(CNC(=O)c2cc(C3=NOC(C4CCN(S(C)(=O)=O)CC4)C3)nc(C)n2)c1 (stereo not shown)
28 | > 1 | COc1ccc(CNC(=O)c2cc(C3=NOC(c4ccc(CN(C)C)cc4)C3)ccn2)cc1 (stereo not shown)
29 | 0.01 to 0.1 | COC[C@@H]1CO[C@@H]([C@@H]2CC(c3cc(C(=O)NCc4ccc(F)c(OC)c4)nc(C)n3)=NO2)CO1
30 | < 0.01 | Cc1nc(C(=O)NCc2ccc(F)c(C)c2)cc(C2=NO[C@H]([C@H]3CO[C@H](CS(C)(=O)=O)CO3)C2)n1
31 | < 0.01 | COc1cc(CNC(=O)c2cc(C3=NO[C@H]([C@H]4CC[C@H](NC(C)=O)CC4)C3)nc(C)n2)ccc1F [drawing 1031]
32 | 0.1 to 1 | COc1ccc(CNC(=O)c2cc(C3CC(c4ccccc4)=NO3)nc(C)n2)cc1 (stereo not shown)
33 | 0.01 to 0.1 | COc1cc(CNC(=O)c2cc(C3=NOC(C4CCN(C(C)=O)CC4)C3)nc(C)n2)ccc1F (stereo not shown)
34 | < 0.01 | COc1cc(CNC(=O)c2cc(C3=NOC(C4CCN(S(=O)(=O)c5cn(C)c(C)n5)CC4)C3)nc(C)n2)ccc1F (stereo not shown)
35 | 0.01 to 0.1 | COc1cc(CNC(=O)c2cc(C3=NOC(c4cc(-c5nc(C)no5)nn4C)C3)nc(C)n2)ccc1F (stereo not shown)
36 | 0.01 to 0.1 | COc1cc(CNC(=O)c2cc(C3=NOC(C4CCN(C(=O)CC#N)CC4)C3)nc(C)n2)ccc1F (stereo not shown) [drawing 1065]
37 | < 0.01 | COc1cc(CNC(=O)c2cc(C3=NOC(C4CCN(S(=O)(=O)c5cn(C)cn5)CC4)C3)nc(C)n2)ccc1F (stereo not shown)
38 | < 0.01 | COc1cc(CNC(=O)c2cc(C3=NOC(C4CCN(C(=O)N(C)CCO)CC4)C3)nc(C)n2)ccc1F (stereo not shown)
39 | < 0.01 | COc1cccc(CNC(=O)c2cc(C3=NOC(c4ccc(C(=O)O)cc4)C3)ccn2)c1 (stereo not shown)
40 | 0.01 to 0.1 | COc1cc(CNC(=O)c2cc(C3=NO[C@H]([C@H]4CO[C@H](CNC(=O)N(C)C)CO4)C3)nc(C)n2)ccc1F
41 | > 1 | Cc1nc(C(=O)NCc2ccc(F)c(F)c2)cc(C2=NO[C@H]([C@H]3CO[C@H](CO)CO3)C2)n1 [drawing 953]
42 | 0.01 to 0.1 | COc1cc(CNC(=O)c2cc(C3=NOC(C4CCN(C(=O)CC#N)CC4)C3)nc(C)n2)ccc1F (stereo not shown) [drawing 881]
43 | 0.01 to 0.1 | Cc1nc(C(=O)NCc2ccc(F)c(C)c2)cc(C2=NOC(C3CCN(C(=O)CO)CC3)C2)n1 (stereo not shown)
44 | 0.1 to 1 | COc1cc(CNC(=O)c2cc(C3=NO[C@@H]([C@H]4CO[C@H](CO)CO4)C3)nc(C)n2)ccc1F [drawing 1055]
45 | 0.01 to 0.1 | COc1cc(CNC(=O)c2cc(C3=NOC(c4ccc(=O)n(CCO)c4)C3)nc(C)n2)ccc1F (stereo not shown)
46 | < 0.01 | COc1cc(CNC(=O)c2cc(C3=NOC(c4ccc(S(C)(=O)=O)cn4)C3)nc(C)n2)ccc1F (stereo not shown)

Row | IC50 [µM] | Compound
47 | 0.01 to 0.1 | CC(=O)N1CCC(C2CC(c3cc(C(=O)NCc4ccc(F)c(F)c4)nc(C)n3)=NO2)CC1 (stereo not shown)
48 | < 0.01 | COc1cc(CNC(=O)c2cc(C3=NOC(c4ccc(CN5CCSCC5)cc4)C3)nc(C)n2)ccc1F (stereo not shown)
49 | 0.01 to 0.1 | CNC(=O)c1ccc(C2CC(c3cc(C(=O)NCc4ccc(F)c(OC)c4)nc(C)n3)=NO2)nn1 (stereo not shown)
50 | 0.01 to 0.1 | COc1cc(CNC(=O)c2cc(C3=NOC(C4CCN(C(=O)CO)CC4)C3)nc(C)n2)ccc1F (stereo not shown)
51 | 0.1 to 1 | COc1ccc(CNC(=O)c2cc(C3=NOC(c4ccc(N(C)C)cc4)C3)nc(C)n2)cc1 (stereo not shown)
52 | > 1 | COc1cccc(CNC(=O)c2cc(C3=NOC(C)(c4ccc(Cl)cc4)C3)ccn2)c1 (stereo not shown)
53 | 0.01 to 0.1 | COc1cc(CNC(=O)c2cc(C3=NOC(c4ccccn4)C3)nc(C)n2)ccc1F (stereo not shown)
54 | < 0.01 | COc1cc(CNC(=O)c2cc(C3=NOC([C@H]4CC[C@H](NC(=O)N(C)CCO)CC4)C3)nc(C)n2)ccc1F (stereo partly shown)
55 | < 0.01 | COc1cc(CNC(=O)c2cc(C3=NO[C@H](c4ccc(=O)n(C)c4)C3)nc(C)n2)ccc1F
56 | 0.01 to 0.1 | COc1cccc(C2CC(c3cc(C(=O)NCc4ccc(F)c(OC)c4)nc(C)n3)=NO2)n1 (stereo not shown)
57 | > 1 | COc1cc(CNC(=O)c2cc(C3=NOC(c4cnn(CCO)c4)C3)nc(C)n2)ccc1F (stereo not shown)
58 | < 0.01 | COc1cc(CNC(=O)c2cc(C3=NOC([C@H]4CC[C@H](C(N)=O)CC4)C3)nc(C)n2)ccc1F (stereo partly shown)
59 | < 0.01 | COc1cc(CNC(=O)c2cc(C3=NO[C@@H](c4ccc(CO)cc4)C3)nc(C)n2)ccc1F
60 | < 0.01 | COc1ccc(CNC(=O)c2cc(C3=NOC(c4ccc(C(N)=O)cc4)C3)nc(C)n2)cc1 (stereo not shown)
61 | < 0.01 | CNC(=O)N[C@H]1CC[C@H](C2CC(c3cc(C(=O)NCc4ccc(F)c(OC)c4)nc(C)n3)=NO2)CC1 (stereo partly shown)
62 | 0.01 to 0.1 | Cc1nc(C(=O)NCc2ccc(F)c(Cl)c2)cc(C2=NO[C@H]([C@H]3CO[C@H](CO)CO3)C2)n1 [drawing 1069]
63 | 0.01 to 0.1 | Cc1nc(C(=O)NCc2ccc(F)cc2)cc(C2=NOC(C3CCN(C(=O)CO)CC3)C2)n1 (stereo not shown)
64 | 0.01 to 0.1 | COc1ccc(CNC(=O)c2cc(C3=NOC(c4ccc(OC)cc4)C3)nc(C)n2)cc1 (stereo not shown)
65 | < 0.01 | COc1cc(CNC(=O)c2cc(C3=NOC(C4CCN(C(=O)NCCO)CC4)C3)nc(C)n2)ccc1F (stereo not shown) [drawing 888]
66 | 0.1 to 1 | COc1cc(CNC(=O)c2cc(C3=NOC(C(=O)NCCO)C3)nc(C)n2)ccc1F (stereo not shown)
67 | < 0.01 | COc1cc(CNC(=O)c2cc(C3=NO[C@H](C4CCN(C(=O)CO)CC4)C3)nc(C)n2)ccc1F
